According to patent US12187709B2 (Genentech, Inc., priority 2021, dated 2025):

Legend:
Cbl-b = Cbl-b (Homo sapiens (Human), UniProt Q13191); experiment: Cbl-b LCK Ub TR-FRET assay (Cbl-b Lck HTRF); format: biochemical; settings: for IC50: Cbl-b LCK Ub TR-FRET; for fold-selectivity (Cbl-b over C-cbl): ratio C-cbl Lck HTRF IC50 / Cbl-b Lck HTRF IC50
In short: (§1)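 Signal is read once the detection mix has stood 20 min at ambient temperature. Curves are anchored by DMSO as maximum and by omission of LCK as minimum.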

c-Cbl = c-Cbl (Homo sapiens (Human), UniProt P22681); experiment: C-Cbl LCK Ub TR-FRET assay (C-cbl Lck HTRF); format: biochemical
Sequence of c-Cbl (P22681 47-435): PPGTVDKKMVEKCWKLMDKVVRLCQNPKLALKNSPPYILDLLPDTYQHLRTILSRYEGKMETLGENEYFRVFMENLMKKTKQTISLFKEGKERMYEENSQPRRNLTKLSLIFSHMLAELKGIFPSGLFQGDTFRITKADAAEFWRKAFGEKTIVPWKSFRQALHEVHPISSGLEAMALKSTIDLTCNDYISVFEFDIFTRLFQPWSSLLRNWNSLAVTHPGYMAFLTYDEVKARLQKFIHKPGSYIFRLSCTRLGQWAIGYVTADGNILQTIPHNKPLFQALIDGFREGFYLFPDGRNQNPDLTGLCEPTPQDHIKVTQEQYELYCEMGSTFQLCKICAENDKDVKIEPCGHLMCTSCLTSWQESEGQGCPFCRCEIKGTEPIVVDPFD
In short: as §1

[1] = molecular target: Human Cbl-b (residues 40-426) (Homo sapiens (Human), UniProt Q13191); experiment: Cbl-b SPR assay; format: binding; settings: for Fold of selectivity: C-cbl SPR Kd vs Cbl-b SPR Kd; for Kd: SPR, 20° C.
Sequence of Human Cbl-b (residues 40-426) (Q13191 40-426): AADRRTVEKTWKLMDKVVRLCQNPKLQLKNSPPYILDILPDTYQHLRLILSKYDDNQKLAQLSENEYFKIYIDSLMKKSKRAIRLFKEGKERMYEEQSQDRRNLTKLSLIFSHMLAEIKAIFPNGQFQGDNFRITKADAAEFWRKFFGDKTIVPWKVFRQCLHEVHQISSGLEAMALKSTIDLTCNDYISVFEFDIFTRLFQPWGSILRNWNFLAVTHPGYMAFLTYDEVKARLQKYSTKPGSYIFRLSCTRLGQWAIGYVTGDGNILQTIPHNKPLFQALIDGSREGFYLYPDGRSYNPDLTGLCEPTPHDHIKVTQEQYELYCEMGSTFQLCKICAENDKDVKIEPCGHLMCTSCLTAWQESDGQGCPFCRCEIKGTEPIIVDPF
In short: (§2)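 Captured protein (1300-1500 RU for both isoforms) was probed in multi-cycle kinetics with 6 concentrations in 2-fold dilution, 60 s contact, 40 μl/min, dissociation 120-1200 s, double-referenced. Kinetic and affinity parameters came from a 1:1 binding fit. For slow off-rates, kd was set independently by a chaser-based method.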

c-Cbl (residues 47-435) = c-Cbl (residues 47-435) (Homo sapiens (Human), UniProt P22681); experiment: c-Cbl SPR assay; format: binding; settings: 20° C.
Sequence of c-Cbl (residues 47-435) (P22681 47-435): as the sequence (P22681 47-435) above
In short: as §2

Sequence of Cbl-b (Q13191 40-426): as the sequence (Q13191 40-426) above

| Structure (SMILES) | IC50 (Cbl-b) | fold-selectivity (Cbl-b over C-cbl) (Cbl-b) | IC50 (c-Cbl) | Fold of selectivity [1] | Kd [1] | Kd (c-Cbl (residues 47-435)) |
| --- | --- | --- | --- | --- | --- | --- |
| Cn1cnnc1C1(c2cc(NC3CCCC3)nc(N3Cc4c(cc(CNC5(C)CCC5)cc4C(F)(F)F)C3=O)c2)CC2(COC2)C1 [Compound 188, 2-(6-(cyclopentylamino)-4-(6-(4-methyl-4H-1,2,4-triazol-3-yl)-2-oxaspiro[3.3]heptna-6-yl)pyridin-2-yl)-6-(((1-methylcyclobutyl)amino)methyl)-4-(trifluoromethyl)isoindolin-1-one] | 16 nM | 11x | 180 nM | 22× | 4.7 nM | 100 nM |
| CCOc1cc(N2Cc3c(cc(CNC4(C)CCC4)cc3C(F)(F)F)C2=O)cc([C@]2(c3nncn3C)C[C@H](C)C2)c1 [Compound 189, 2-(3-ethoxy-5-((1r,3r)-3-methyl-1-(4-methyl-4H-1,2,4-triazol-3-yl)cyclobutyl)phenyl)-6-(((1-methylcyclobutyl)amino)methyl)-4-(trifluoromethyl)isoindolin-1-one] | 7.2 nM | 0.56x | 4.1 nM | 3.3× | 0.3 nM | 1 nM |
| CO[C@H]1C[C@@](c2cccc(N3Cc4c(cccc4C(F)(F)F)C3=O)c2)(c2nncn2C)C1 [Compound 190, 2-(3-((1s,3s)-3-methoxy-1-(4-methyl-4H-1,2,4-triazol-3-yl)cyclobutyl)phenyl)-4-(trifluoromethyl)isoindolin-1-one] | 7800 nM | 2.0x | 16000 nM | 2.2× | 5200 nM | 11000 nM |
| C[C@H](CC#N)Nc1cc(C2(c3nncn3C)CC3(COC3)C2)cc(N2Cc3c(cc(CNC4(C)CCC4)cc3C(F)(F)F)C2=O)n1 [Compound 192, (R)-3-((4-(6-(4-methyl-4H-1,2,4-triazol-3-yl)-2-oxaspiro[3.3]heptan-6-yl)-6-(6-(((1-methylcyclobutyl)amino)methyl)-1-oxo-4-(trifluoromethyl)isonidolin-2-yl)pyridin-2-yl)amino)butanenitrile] | 13 nM | 0.7x | 9.2 nM | 5.7× | 0.3 nM | 1.7 nM |
| Cn1cnnc1C1(c2cc(OC3CCCC3)nc(N3Cc4c(cc(CNC5(C)CCC5)cc4C(F)(F)F)C3=O)c2)CC2(COC2)C1 [Compound 193] | 36 nM | 11x | 420 nM | 27× | 12 nM | 320 nM |
| C[C@@H](CC#N)Nc1cc(C2(c3nncn3C)CC3(COC3)C2)cc(N2Cc3c(cc(CNC4(C)CCC4)cc3C(F)(F)F)C2=O)n1 [Compound 194, (S)-3-((4-(6-(4-methyl-4H-1,2,4-triazol-3-yl)-2-oxaspiro[3.3]heptan-6-yl)-6-(6-(((1-methylcyclobutyl)amino)methyl)-1-oxo-4-(trifluoromethyl)isoindolin-2-yl)pyridin-2-yl)amino)butanenitrile] | 13 nM | 2.5x | 34 nM | 8.3× | 1.9 nM | 16 nM |
| Cn1cnnc1[C@]1(c2cc(OC3CCCC3)cc(N3Cc4c(cc(CNC5(C)CCC5)cc4C(F)(F)F)C3=O)c2)C[C@@H](C)C1 [Compound 195, 2-(3-(cyclopentyloxy)-5-((1r,3r)-3-methyl-1-(4-methyl-4H-1,2,4-triazol-3-yl)cyclobutyl)phenyl)-6-(((1-methylcyclobutyl)amino)methyl)-4-(trifluoromethyl)isoindolin-1-one] | 36 nM | 2.4x | 84 nM | 7.6× | 15 nM | 110 nM |
| CO[C@H]1C[C@](c2cccc(N3Cc4c(cccc4C(F)(F)F)C3=O)c2)(c2nncn2C)C1 [Compound 196, 2-(3-((1r,3r)-3-methoxy-1-(4-methyl-4H-1,2,4-triazol-3-yl)cyclobutyl)phenyl)-4-(trifluoromethyl)isoindolin-1-one] | 1500 nM | 5.6x | 8300 nM | 5.5× | 1800 nM | 9900 nM |
| Cn1cnnc1C1(c2cccc(N3Cc4c(cc(CNC5(C)CCC5)cc4C(F)F)C3=O)c2)CC2(COC2)C1 [Compound 197, 4-(difluoromethyl)-2-(3-(6-(4-methyl-4H-1,2,4-triazol-3-yl)-2-oxaspiro[3.3]heptan-6-yl)phenyl)-6-(((1-methylcyclobutyl)amino)methyl)isoindolin-1-one] | 37 nM | 4.5x | 160 nM | 9.2× | 12 nM | 110 nM |
| CC(C)[C@H]1CN(C)CCN1Cc1cc2c(c(C(F)F)c1)CN(c1cccc(C3(c4nncn4C)CC4(COC4)C3)c1)C2=O.O=CO.O=CO [Compound 198, (S)-4-(difluoromethyl)-6-((2-isopropyl-4-methylpiperazin-1-yl)methyl)-2-(3-(6-(4-methyl-4H-1,2,4-triazol-3-yl)-2-oxaspiro[3.3]heptan-6-yl)phenyl)isoindolin-1-one formate] | 46 nM | 4.4x | 200 nM | 5.1× | 29 nM | 120 nM |

Second part, the compound after the results:

| IC50 (Cbl-b) | fold-selectivity (Cbl-b over C-cbl) (Cbl-b) | IC50 (c-Cbl) | Fold of selectivity [1] | Kd [1] | Kd (c-Cbl (residues 47-435)) | Structure (SMILES) |
| --- | --- | --- | --- | --- | --- | --- |
| 24 nM | 1.7x | 40 nM | 2.4× | 8 nM | 19 nM | COc1cc(N2Cc3c(cc(CNC4(C)CCC4)cc3C(F)(F)F)C2=O)cc([C@]2(c3nncn3C)C[C@@H](OC)C2)c1 [Compound 200, 2-(3-methoxy-5-((1s,3s)-3-methoxy-1-(4-methyl-4H-1,2,4-triazol-3-yl)cyclobutyl)phenyl)-6-(((1-methylcyclobutyl)amino)methyl)-4-(trifluoromethyl)isoindolin-1-one] |
| 12 nM | 1.5x | 18 nM | 3.6× | 3 nM | 11 nM | COc1cc(N2Cc3c(cc(CNC4(C)CCC4)cc3C(F)(F)F)C2=O)cc([C@]2(c3nncn3C)C[C@H](OC)C2)c1 [Compound 201, 2-(3-methoxy-5-((1r,3r)-3-methoxy-1-(4-methyl-4H-1,2,4-triazol-3-yl)cyclobutyl)phenyl)-6-(((1-methylcyclobutyl)amino)methyl)-4-(trifluoromethyl)isoindolin-1-one] |
| 11 nM | 1.8x | 21 nM | 5.2× | 3.3 nM | 17 nM | CCOc1cc(N2Cc3c(cc(CNC4(C)CCC4)cc3C(F)(F)F)C2=O)cc([C@]2(c3nncn3C)C[C@H](OC)C2)c1 [Compound 202, 2-(3-ethoxy-5-((1r,3r)-3-methoxy-1-(4-methyl-4H-1,2,4-triazol-3-yl)cyclobutyl)phenyl)-6-(((1-methylcyclobutyl)amino)methyl)-4-(trifluoromethyl)isoindolin-1-one] |
| 18 nM | 2.1x | 38 nM | 3.3× | 6.4 nM | 21 nM | CCOc1cc(N2Cc3c(cc(CNC4(C)CCC4)cc3C(F)(F)F)C2=O)cc([C@]2(c3nncn3C)C[C@@H](OC)C2)c1 [Compound 203, 2-(3-ethoxy-5-((1s,3s)-3-methoxy-1-(4-methyl-4H-1,2,4-triazol-3-yl)cyclobutyl)phenyl)-6-(((1-methylcyclobutyl)amino)methyl)-4-(trifluoromethyl)isoindolin-1-one] |
| 63 nM | 3.8x | 240 nM | 2.8× | 46 nM | 130 nM | C=CCOc1cc(N2Cc3c(cc(CNC4(C)CCC4)cc3C(F)(F)F)C2=O)cc([C@]2(c3nncn3C)C[C@@H](OC)C2)c1 [Compound 205, 2-(3-(allyloxy)-5-((1s,3s)-3-methoxy-1-(4-methyl-4H-1,2,4-triazol-3-yl)cyclobutyl)phenyl)-6-(((1-methylcyclobutyl)amino)methyl)-4-(trifluoromethyl)isoindolin-1-one] |
| 34 nM | 2.4x | 82 nM | 2.4× | 12 nM | 30 nM | CO[C@H]1C[C@@](c2cc(OC(C)C)cc(N3Cc4c(cc(CNC5(C)CCC5)cc4C(F)(F)F)C3=O)c2)(c2nncn2C)C1 [Compound 206, 2-(3-isopropoxy-5-((1s,3s)-3-methoxy-1-(4-mehtyl-4H-1,2,4-triazol-3-yl)cyclobutyl)phenyl)-6-(((1-methylcyclobutyl)amino)methyl)-4-(trifluoromethyl)isoindolin-1-one] |
| 24 nM | 2.2x | 52 nM | 2.6× | 9.3 nM | 24 nM | CO[C@H]1C[C@](c2cc(OC(C)C)cc(N3Cc4c(cc(CNC5(C)CCC5)cc4C(F)(F)F)C3=O)c2)(c2nncn2C)C1 [Compound 207, 2-(3-isopropoxy-5-((1r,3r)-3-methoxy-1-(4-methyl-4H-1,2,4-triazol-3-yl)cyclobutyl)phenyl)-6-(((1-methylcyclobutyl)amino)methyl)-4-(trifluoromethyl)isoindolin-1-one] |
